# Experimental data reported in publication doi:10.1101/2025.11.04.686469, “Discovery of Host-Directed Small Molecules with Broad Anti-Leishmanial Efficacy” (bioRxiv, 2025).
# pIC50: −log10 of the molar value.
# Legend:
# [1] = tested on: intracellular L. donovani amastigotes; assay: Luminescent-based evaluation of intracellular anti-leishmanial activity in THP-1 macrophages; assay type: cell-based, Leishmania donovani; details: intracellular Leishmania donovani in THP1 macrophages, luminescence assay (Supplemental Table 2); read-out: Lum IC50
# Procedure: Luminescent strains, L. donovani LV82 expressing firefly luciferase (a kind gift from Dr. Abhay Satoskar, Ohio State University) and L. mexicana (NR-51210, ATCC) expressing renilla luciferase were used to evaluate the effect of the compounds in intracellular and extracellular conditions. Wild-type L. donovani LV82 (ATCC) were used for Giemsa staining based experiments. All parasites were cultured at 25°C and 5% CO2 in M199 media (Corning) supplemented with 10% FBS, 1% penicillin/streptomycin, and hemin (0.01 mg/mL), and used in experiments up to passage 15.
# THP-1 cells were seeded in a 96 well plate (25,000 cells/well) overnight then differentiated with 150 nM phorbol 12-myristate 13-acetate (PMA) over 72 hours (Supplemental Figure 1). […] Briefly, promastigotes of a known cell density were resuspended in RPMI media (with 10% FBS, 1% P/S and 0.05 mM β-mercaptoethanol) and incubated with adhered THP-1 cells over 18 hours. After infection, cells were washed three times with fresh media to remove extracellular promastigotes.
# Infected macrophages were then treated with compounds solubilized in DMSO ranging from 0.1-10 μM in concentrations. After 72 hours of treatment, the viability of the amastigotes within macrophages was determined using Promega firefly luminescence assay (Cat E1500) or Pierce Renilla luciferase assay (Cat 16166) for L. donovani and L. mexicana strains, respectively. Briefly, media was removed, and cells were lysed with the assay lysis buffer. The luciferase substrate was then incubated with the lysed cells for 10 min at room temperature and luminescence of live Leishmania was measured in a white opaque 96 well plate using a Biotek plate reader.
# THP-1 macrophages = assay: Effect of compounds on host cell viability (MTT); assay type: cell-based; details: read-out: 24h LC50; THP1 macrophages, 24-hour incubation, MTT assay (Supplemental Table 2)
# Procedure: The cells were cultured at 37C, 5% CO2 in RPMI medium (ATCC) supplemented with 10% FBS, 1% Penicillin/Streptomycin and 0.05 mM of β-mercaptoethanol. Cells were used in experiments up to passage 10.
# Effect of the compounds on THP-1 cell viability measured using thiazolyl blue tetrazolium bromide which measures cell metabolic activity (MTT). THP-1 cells were seeded in a 96 well plate (25,000 cells/well) overnight then differentiated with 150 nM phorbol 12-myristate 13-acetate (PMA) over 72 hours. Macrophages were then treated with compounds resuspended in RPMI media (1- 50 μM) for 24 hours. Media was replaced with thiazolyl blue tetrazolium bromide solubilized in RPMI media (0.5 mg/mL) and incubated at 37°C for 2 hours. The reduced formazan crystals were solubilized with isopropyl alcohol and the absorbance of the resulting solution was measured at 560 nm with a background subtraction at 670 nm. […] This process was repeated with a 72-hr incubation and extended concentration range (1 - 300 μM) for select compounds.
Structure (SMILES),pIC50 [1],CC50 (THP-1 macrophages) [µM]
CC(C)(C)OC(=O)NCC(=O)Nc1ccc(-n2cc(C(F)(F)F)nc2-c2ccc(C(C)(C)C)cc2)cc1 [Compound 151],< 5.00,31.8
CC(C)(C)OC(=O)NC1CCN(c2ccc(-n3nc(C(F)(F)F)cc3-c3ccc(-c4ccc(C(F)(F)F)cc4)cc3)cc2)CC1 [Compound 72],< 5.00,> 50
Cc1ccc(-n2nc(C(F)(F)F)cc2-c2ccc(-c3ccc(C(F)(F)F)cc3)cc2)c(C)c1 [Compound 185],< 5.00,> 50
FC(F)(F)c1ccc(-c2ccc(-c3cc(C(F)(F)F)nn3-c3ccc(NC4CCNCC4)cc3)cc2)cc1 [Compound 65],5.64,4
Cc1ccc(-c2cc(C(F)(F)F)nn2-c2ccc(Br)cc2)cc1 [Compound 196],< 5.00,> 50
Nc1ccc(-n2cc(C(F)(F)F)nc2-c2ccc(-c3ccc(C(F)(F)F)cc3)cc2)cc1 [Compound 76],< 5.00,–
CC(C)(C)OC(=O)NC1CCN(c2ccc(-n3nc(C(F)(F)F)cc3C(C)(C)C)cc2)C1 (centres unmarked) [Compound 202],5.07,> 50
FC(F)(F)c1c[nH]c(-c2ccc(Oc3ccccc3)cc2)n1 [Compound 218],< 5.00,> 50
FC(F)(F)c1cc(C(F)(F)F)n(-c2ccc(NC3CCNC3)cc2)n1 (centres unmarked) [Compound 314],5.57,21.9
O=[N+]([O-])c1ccc(-c2cc(C(F)(F)F)nn2-c2ccc(Br)cc2)cc1 [Compound 143],< 5.00,> 50
NCCCN1CCC(Oc2ccc(-n3nc(C(F)(F)F)cc3C3CCCCC3)cc2)CC1 [Compound 425],5.66,5.5
FC(F)(F)c1cc(-c2ccc(Cl)cc2)n(-c2ccc(Br)cc2)n1 [Compound 194],< 5.00,> 50
NCC(=O)Nc1ccc(-n2cnc3ccccc32)cc1 [Compound 150],< 5.00,> 50
FC(F)(F)c1ccc(-c2ccc(-c3cc(C(F)(F)F)nn3-c3ccc(OC4CCN(Cc5ccccc5)C4)cc3)cc2)cc1 (centres unmarked) [Compound 145],< 5.00,> 50
FC(F)(F)c1cc(-c2ccc(-c3ccc(S(F)(F)(F)(F)F)cc3)cc2)n(-c2ccc(N3CCC(NCc4ccccc4)C3)cc2)n1 (centres unmarked) [Compound 107],< 5.00,> 50
COc1ccc(-c2cc(C(F)(F)F)nn2-c2ccc(NC3CCNC3)cc2)cc1OC (centres unmarked) [Compound 260],5.37,13.9
FC(F)(F)c1ccc(-c2ccc(-c3cc(C(F)(F)F)nn3-c3ccc(NC4CCN(C5CCCCC5)C4)cc3)cc2)cc1 (centres unmarked) [Compound 58],5.66,2.6
O=C(OCc1ccccc1)N1CCC(Nc2ccc(-n3nc(C(F)(F)F)cc3-c3ccc(-c4ccc(C(F)(F)F)cc4)cc3)cc2)C1 (centres unmarked) [Compound 6],–,> 50
CC(C)c1cc(C(F)(F)F)nn1-c1ccc(Br)cc1 [Compound 277],–,> 50
FC(F)(F)c1ccc(-c2ccc(-c3cc(C(F)(F)F)nn3-c3ccc(Br)cc3)cc2)cc1 [Compound 2],–,> 50
FC(F)(F)c1ccc(-c2nc(C(F)(F)F)cn2CC2CCNC2)cc1 (centres unmarked) [Compound 292],–,> 50

Structure (SMILES),pIC50 [1],CC50 (THP-1 macrophages) [µM]
O=[N+]([O-])c1ccc(-n2cc(C(F)(F)F)nc2-c2ccc(-c3ccccc3)cc2)cc1 [Compound 32],–,6.3
OCCn1nc(C(F)(F)F)cc1-c1ccc(C(F)(F)F)cc1 [Compound 293],–,> 50
FC(F)(F)c1cc(C2CCCCC2)n(-c2ccc(N3CCC(OCc4ccccc4)C3)cc2)n1 (centres unmarked) [Compound 412],–,> 50
N#Cc1ccc(CNC2CCN(c3ccc(-n4nc(C(F)(F)F)cc4-c4ccc(-c5ccc(C(F)(F)F)cc5)cc4)cc3)C2)cc1 (centres unmarked) [Compound 19],–,> 50
Fc1cccc(CN2CCC(Nc3ccc(-n4nc(C(F)(F)F)cc4C4CCCCC4)cc3)CC2)c1 [Compound 322],–,> 50
Cc1cc(C(F)(F)F)n(-c2ccc(Br)cc2)n1 [Compound 274],–,> 50
Nc1ccc(-n2nc(C(F)(F)F)cc2C2CCCCC2)cc1 [Compound 338],–,> 50
FC(F)(F)c1cc(C2CCCCC2)n(-c2ccc(N3CCC(OCc4ccccc4)CC3)cc2)n1 [Compound 414],–,> 50
CCc1cc(C(F)(F)F)nn1-c1ccc(NC2CCN(C(=O)OC(C)(C)C)C2)cc1 (centres unmarked) [Compound 317],–,> 50
CC(C)(C)OC(=O)N1CCC(Nc2ccc(-n3nc(C(F)(F)F)cc3C(F)(F)F)cc2)C1 (centres unmarked) [Compound 283],–,> 50
Fc1cccc(CN2CCC(Oc3ccc(-n4nc(C(F)(F)F)cc4C4CCCCC4)cc3)CC2)c1 [Compound 372],–,> 50
O=[N+]([O-])c1ccc(-n2cc(C(F)(F)F)nc2-c2ccc(Cl)cc2)cc1 [Compound 29],–,> 50
Cc1ccccc1CNC1CN(c2ccc(-n3nc(C(F)(F)F)cc3-c3ccc(-c4ccc(C(F)(F)F)cc4)cc3)cc2)C1 [Compound 48],–,> 50
Nc1ccc(-n2cc(C(F)(F)F)nc2-c2ccc(Cl)cc2)cc1 [Compound 30],–,> 50
FC(F)(F)c1ccc(-c2cc(C(F)(F)F)nn2CCNC2CCN(Cc3ccccc3)C2)cc1 (centres unmarked) [Compound 294],–,28.2
FC(F)(F)c1ccc(-c2ccc(-c3cc(C(F)(F)F)nn3-c3ccc(N4CCC(NCc5ccccc5Cl)C4)cc3)cc2)cc1 (centres unmarked) [Compound 12],–,> 50
NC(=O)CN1c2ccccc2C2CCCC21 (centres unmarked) [Compound 320],–,> 50
CC(C)(C)OC(=O)N1CCN(c2ccc(-n3nc(C(F)(F)F)cc3-c3ccc(Br)cc3)cc2)CC1 [Compound 41],–,> 50
CC(C)(C)OC(=O)NCC(=O)Nc1ccc(-n2nc(C(F)(F)F)cc2C2CCCCC2)cc1 [Compound 340],–,> 50
CCCCNc1ccc(-n2nc(C(F)(F)F)cc2-c2ccc(-c3ccc(C(F)(F)F)cc3)cc2)cc1 [Compound 57],–,> 50
C#Cc1ccc(-c2cc(C(F)(F)F)nn2-c2ccc(N3CCNCC3)cc2)cc1 [Compound 43],–,0.5

Structure (SMILES),pIC50 [1],CC50 (THP-1 macrophages) [µM]
Cc1cc(C(F)(F)F)n(-c2ccc(NC3CCNC3)cc2)n1 (centres unmarked) [Compound 284],–,> 50
CC(C)(C)c1nc(C(F)(F)F)cn1-c1ccc(Br)cc1 [Compound 329],–,> 50
CCc1cc(-c2ccc(-c3ccc(C(F)(F)F)cc3)cc2)n(-c2ccc(Br)cc2)n1 [Compound 280],–,> 50
CCCN(CCC)CCc1c[nH]c2ccccc12 [Compound 411],–,> 50
FC(F)(F)c1c[nH]c(-c2ccc(Cl)cc2)n1 [Compound 35],–,> 50
CC(C)(C)OC(=O)N1CCC(Nc2ccc(-n3nc(C(F)(F)F)cc3-c3ccc(-c4ccc(C(F)(F)F)cc4)cc3)cc2)C1 (centres unmarked) [Compound 15],–,> 50
FC(F)(F)c1ccc(-c2ccc(-c3cc(C(F)(F)F)nn3-c3ccc(N4CCC(NCc5ccccc5)C4)cc3)cc2)cc1 (centres unmarked) [Compound 16],–,> 50
N#Cc1ccc(COC2CCN(c3ccc(-n4nc(C(F)(F)F)cc4C4CCCCC4)cc3)C2)cc1 (centres unmarked) [Compound 413],–,> 50
Nc1ccc(-n2nc(C(F)(F)F)cc2-c2ccc(Br)cc2)cc1 [Compound 40],–,> 50
FC(F)(F)c1ccc(-c2ccc(-c3cc(C(F)(F)F)nn3-c3ccc(N4CCC(NCc5ccc6ccccc6c5)C4)cc3)cc2)cc1 (centres unmarked) [Compound 17],–,> 50
Fc1cccc([C@@H]2CCCN2)c1 [Compound 278],–,> 50
O=[N+]([O-])c1ccc(-n2nc(C3CCCCC3)cc2C(F)(F)F)cc1 [Compound 335],–,> 50
CC(C)(C)OC(=O)N1CCC(Nc2ccc(-n3nc(C(F)(F)F)cc3-c3ccccc3C(F)(F)F)cc2)C1 (centres unmarked) [Compound 259],–,23.6
Nc1ccc(-n2cc(C(F)(F)F)nc2-c2ccc(-c3ccccc3)cc2)cc1 [Compound 33],–,1.5
CC(C)(C)OC(=O)N1CCC(Nc2ccc(-n3nc(C(F)(F)F)cc3-c3ccco3)cc2)C1 (centres unmarked) [Compound 269],–,> 50
CCOC(=O)CNc1ccc(-n2cc(C(F)(F)F)nc2-c2ccc(C(F)(F)F)cc2)cc1 [Compound 403],–,> 50
N#Cc1ccc(-n2cc(C(F)(F)F)nc2-c2ccc(Br)cc2)c(F)c1 [Compound 291],–,> 50
O=C(c1ccc(F)cc1)N1CCC(Nc2ccc(-n3nc(C(F)(F)F)cc3-c3ccc(-c4ccc(C(F)(F)F)cc4)cc3)cc2)C1 (centres unmarked) [Compound 59],–,> 50
O=[N+]([O-])c1ccc(-n2nc(C(F)(F)F)cc2-c2ccc(-c3ccc(C(F)(F)F)cc3)cc2)cc1 [Compound 9],–,> 50
